Laboratory results as given in the supplement of paper PMC11208160.

Assay: recombinant UMI read abundance after kanamycin selection (control-corrected) (log10(CPM+1)); higher = more efficient recombination; extreme values may be limits of the assay; sequences stand for … in AGTGCAGAGAAAATCGGCCAGTTTTCTCTGCCTGCAGTCCGCATGCCGTGGGACCCCTTGGGTTCTAACCTGTTGCCTAGATTTATGCAGCGGACTGCCTTTCTCCCAAAGTGATAAACCGG…AGGTTGGTTTCACT; site = the 11-nt donor
How it was run: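 The measure is log10(CPM+1) for recombinant UMIs. These were PCR-amplified across the donor–target junction and sequenced after Escherichia coli carrying a donor and donor-binding-loop pair library and a target plasmid with T7-inducible IS621 bridge recombinase was plated on IPTG (0.07 mM) plus kanamycin or unselected. CPM were averaged over two replicates and scaled by control-derived factors.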
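Further: IS621 bridge recombinase in Escherichia coli cells against a fixed T5 target plasmid.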

| Sequence | recombinant UMI read abundance (log10) |
| --- | --- |
| CACGTATCATGGACCGGTTTTCCCGGTAATCCGTATTTGAC (site CTAGTATCTGT) | 1.1 |
| CACGTCACATGGACCGGTTTTCCCGGTAATCCGTATTTGGG (site CAAGTCACTCC) | 0.0977 |
| CACGTCACATGGACCGGTTTTCCCGGTAATCCGTATTTGGG (site CACGTCACTCC) | 0.0104 |
| CACGTCACATGGACCGGTTTTCCCGGTAATCCGTATTTGGG (site CAGGTCACTCC) | 0.00985 |
| CACGTCACATGGACCGGTTTTCCCGGTAATCCGTATTTGGG (site CATGTCACTCC) | 0.012 |
| CACGTCCCATGGACCGGTTTTCCCGGTAATCCGTATTTGTT (site CACGACCCTAA) | 0.22 |
| CACGTCCCATGGACCGGTTTTCCCGGTAATCCGTATTTGTT (site CACGCCCCTAA) | 0.263 |
| CACGTCCCATGGACCGGTTTTCCCGGTAATCCGTATTTGTT (site CACGGCCCTAA) | 0.00825 |
| CACGTCCCATGGACCGGTTTTCCCGGTAATCCGTATTTGTT (site CACGTCCCTAA) | 0.326 |
| CACGTGGCATGGACCGGTTTTCCCGGTAATCCGTATTTGGA (site CACATGGCTTC) | 0.429 |
| CACGTGGCATGGACCGGTTTTCCCGGTAATCCGTATTTGGA (site CACCTGGCTTC) | 0.475 |
| CACGTGGCATGGACCGGTTTTCCCGGTAATCCGTATTTGGA (site CACGTGGCTTC) | 1.2 |
| CACGTGGCATGGACCGGTTTTCCCGGTAATCCGTATTTGGA (site CACTTGGCTTC) | 0.235 |
| CACTAGCCATGGACCGGTTTTCCCGGTAATCCGTATTTGCC (site CACTAGCCTGG) | 0.665 |
| CACTAGCCATGGACCGGTTTTCCCGGTAATCCGTATTTGCC (site CCCTAGCCTGG) | 0 |
| CACTAGCCATGGACCGGTTTTCCCGGTAATCCGTATTTGCC (site CGCTAGCCTGG) | 0 |
| CACTAGCCATGGACCGGTTTTCCCGGTAATCCGTATTTGCC (site CTCTAGCCTGG) | 0 |
| CACTAGGCATGGACCGGTTTTCCCGGTAATCCGTATTTGAT (site CACTAGGCTAT) | 1.33 |
| CACTCGACATGGACCGGTTTTCCCGGTAATCCGTATTTGTG (site CACTCGACTCA) | 0.319 |
| CACTCGTCATGGACCGGTTTTCCCGGTAATCCGTATTTGCC (site CACTCATCTGG) | 2.88 |
| CACTCGTCATGGACCGGTTTTCCCGGTAATCCGTATTTGCC (site CACTCCTCTGG) | 0 |
| CACTCGTCATGGACCGGTTTTCCCGGTAATCCGTATTTGCC (site CACTCGTCTGG) | 3.2 |
| CACTCGTCATGGACCGGTTTTCCCGGTAATCCGTATTTGCC (site CACTCTTCTGG) | 0 |

| Sequence | recombinant UMI read abundance (log10) |
| --- | --- |
| CACTCTTCATGGACCGGTTTTCCCGGTAATCCGTATTTGTT (site CACTCTTCTAA) | 1.58 |
| CACTGACCATGGACCGGTTTTCCCGGTAATCCGTATTTGGG (site CACTGACCTCC) | 0.00646 |
| CACTGCTCATGGACCGGTTTTCCCGGTAATCCGTATTTGCC (site CACTACTCTGG) | 2 |
| CACTGCTCATGGACCGGTTTTCCCGGTAATCCGTATTTGCC (site CACTCCTCTGG) | 0 |
| CACTGCTCATGGACCGGTTTTCCCGGTAATCCGTATTTGCC (site CACTGCTCTGG) | 2.93 |
| CACTGCTCATGGACCGGTTTTCCCGGTAATCCGTATTTGCC (site CACTTCTCTGG) | 0 |
| CACTTCTCATGGACCGGTTTTCCCGGTAATCCGTATTTGCC (site CACTACTCTGG) | 1.09 |
| CACTTCTCATGGACCGGTTTTCCCGGTAATCCGTATTTGCC (site CACTCCTCTGG) | 1.41 |
| CACTTCTCATGGACCGGTTTTCCCGGTAATCCGTATTTGCC (site CACTGCTCTGG) | 0 |
| CACTTCTCATGGACCGGTTTTCCCGGTAATCCGTATTTGCC (site CACTTCTCTGG) | 2.12 |
| CACTTGACATGGACCGGTTTTCCCGGTAATCCGTATTTGGA (site CACTTGACTTC) | 0.194 |
| CACTTGACATGGACCGGTTTTCCCGGTAATCCGTATTTGGA (site CACTTGCCTTC) | 0.0198 |
| CACTTGACATGGACCGGTTTTCCCGGTAATCCGTATTTGGA (site CACTTGGCTTC) | 0.369 |
| CACTTGACATGGACCGGTTTTCCCGGTAATCCGTATTTGGA (site CACTTGTCTTC) | 0.138 |
| CACTTGGCATGGACCGGTTTTCCCGGTAATCCGTATTTGAA (site CACTTGGCTTA) | 0.431 |
| CACTTGGCATGGACCGGTTTTCCCGGTAATCCGTATTTGAA (site CACTTGGCTTC) | 0.236 |
| CACTTGGCATGGACCGGTTTTCCCGGTAATCCGTATTTGAA (site CACTTGGCTTG) | 1.05 |
| CACTTGGCATGGACCGGTTTTCCCGGTAATCCGTATTTGAA (site CACTTGGCTTT) | 1.33 |
| CACTTGGCATGGACCGGTTTTCCCGGTAATCCGTATTTGGT (site CACTTGGCTAC) | 1.79 |
| CACTTGGCATGGACCGGTTTTCCCGGTAATCCGTATTTGGT (site CACTTGGCTCC) | 0.103 |
| CACTTGGCATGGACCGGTTTTCCCGGTAATCCGTATTTGGT (site CACTTGGCTGC) | 1.88 |
| CACTTGGCATGGACCGGTTTTCCCGGTAATCCGTATTTGGT (site CACTTGGCTTC) | 0.0133 |
| CACTTGGCATGGACCGGTTTTCCCGGTAATCCGTATTTGTA (site CACTTGGCTTA) | 1.46 |

| Sequence | recombinant UMI read abundance (log10) |
| --- | --- |
| CACTTGGCATGGACCGGTTTTCCCGGTAATCCGTATTTGTA (site CACTTGGCTTC) | 0.00904 |
| CACTTGGCATGGACCGGTTTTCCCGGTAATCCGTATTTGTA (site CACTTGGCTTG) | 1.47 |
| CACTTGGCATGGACCGGTTTTCCCGGTAATCCGTATTTGTA (site CACTTGGCTTT) | 0.75 |
| CACTTTCCATGGACCGGTTTTCCCGGTAATCCGTATTTGAG (site CACTTTCCTCT) | 0.0778 |
| CACTTTGCATGGACCGGTTTTCCCGGTAATCCGTATTTGGA (site CACTTAGCTTC) | 0.0269 |
| CACTTTGCATGGACCGGTTTTCCCGGTAATCCGTATTTGGA (site CACTTCGCTTC) | 0.0129 |
| CACTTTGCATGGACCGGTTTTCCCGGTAATCCGTATTTGGA (site CACTTGGCTTC) | 0.0264 |
| CACTTTGCATGGACCGGTTTTCCCGGTAATCCGTATTTGGA (site CACTTTGCTTC) | 1.71 |
| CAGAACCCATGGACCGGTTTTCCCGGTAATCCGTATTTGCC (site CAGAACCCTGG) | 0 |
| CAGAATCCATGGACCGGTTTTCCCGGTAATCCGTATTTGAT (site CAGAATCCTAT) | 1.84 |
| CAGAATCCATGGACCGGTTTTCCCGGTAATCCGTATTTGAT (site CGGAATCCTAA) | 0 |
| CAGAATCCATGGACCGGTTTTCCCGGTAATCCGTATTTGTT (site CAGAATCCTAA) | 2.07 |
| CAGAATCCATGGACCGGTTTTCCCGGTAATCCGTATTTGTT (site CCGAATCCTAA) | 0 |
| CAGAATCCATGGACCGGTTTTCCCGGTAATCCGTATTTGTT (site CGGAATCCTAA) | 0.0121 |
| CAGAATCCATGGACCGGTTTTCCCGGTAATCCGTATTTGTT (site CTGAATCCTAA) | 0 |
| CAGAGGCCATGGACCGGTTTTCCCGGTAATCCGTATTTGCT (site CAGAGGCCTAG) | 1.68 |
| CAGAGTCCATGGACCGGTTTTCCCGGTAATCCGTATTTGCC (site CAGAGTCCTGG) | 1.8 |
| CAGAGTCCATGGACCGGTTTTCCCGGTAATCCGTATTTGTT (site CAGAGTCCTAA) | 1.92 |
| CAGAGTCCATGGACCGGTTTTCCCGGTAATCCGTATTTGTT (site CGGAATCCTAA) | 0 |
| CAGATAACATGGACCGGTTTTCCCGGTAATCCGTATTTGGG (site CAGATAACTCC) | 1.1 |
| CAGCAACCATGGACCGGTTTTCCCGGTAATCCGTATTTGCA (site CAGCAACCTTG) | 0 |
| CAGCAATCATGGACCGGTTTTCCCGGTAATCCGTATTTGGT (site CAGCAATCTAC) | 2.73 |
